Some test systems named below: DLD-1 colon; NCI-H460 lung; KM12 colon; XF 498 CNS; SNB-78 CNS; OVCAR-3 ovarian; MOLT-4 leukemia; LOX IMVI melanoma; HOP-18 NSCLC; M19-MEL melanoma; DMS 114 small cell lung; DMS 273 small cell lung; HOP-62 NSCLC; U251 CNS; HCC-2998 colon; KM20L2 colon; HL-60(TB) leukemia; LXFL 529 NSCLC; DU-145 prostate.
What all share (experiment): DTP human tumour cell line panel, 48 h

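Test compounds were applied to cells in 96-well plates for 48 hours at 5 doses. The concentration for full growth arrest is given as TGI.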

In the case of `N#Cc1cccc2c1Nc1ccccc1S2`, the TGI in the assay with DLD-1 colon, in the assay with NCI-H460 lung, in the assay on KM12 colon, in the assay with XF 498 CNS, in the assay with SNB-78 CNS and in the assay on OVCAR-3 ovarian was above 100 µM each time. Further, the TGI with MOLT-4 leukemia, in the assay on LOX IMVI melanoma, in the assay on HOP-18 NSCLC, in the assay on M19-MEL melanoma, with DMS 114 small cell lung and in the assay with DMS 273 small cell lung was above 100 µM throughout. In addition, the TGI with HOP-62 NSCLC, in the assay on U251 CNS, in the assay on HCC-2998 colon, with KM20L2 colon and in the assay on HL-60(TB) leukemia was above 100 µM throughout.
Consider `COP(=O)(OC)C(=O)N1N(c2ccc([N+](=O)[O-])cc2)C(=O)C(C)NC1(NNc1ccc([N+](=O)[O-])cc1)P(=O)(OC)OC` (configuration not stated), for which the total growth inhibition concentration (TGI) in the assay with DLD-1 colon, in the assay on NCI-H460 lung, in the assay on KM12 colon, in the assay on XF 498 CNS, with LXFL 529 NSCLC and in the assay on OVCAR-3 ovarian was above 100 µM in each case. In addition, the TGI in the assay on MOLT-4 leukemia, with LOX IMVI melanoma, in the assay on M19-MEL melanoma, in the assay on DMS 114 small cell lung, in the assay on DMS 273 small cell lung and in the assay with HOP-62 NSCLC was above 100 µM each time. The TGI in the assay on U251 CNS, in the assay on HCC-2998 colon, with KM20L2 colon and with HL-60(TB) leukemia was above 100 µM each time.
With `O=C(c1ccccc1)c1c(CC(O)c2ccccn2)n(C(=O)c2ccccc2)c2ccccc12` (configuration not stated), the TGI (commonly the concentration at which net growth stops) was above 100 µM in the assay with DLD-1 colon; 57 µM with NCI-H460 lung; above 100 µM in the assay with KM12 colon; 46 µM in the assay with XF 498 CNS; above 100 µM in the assay on LXFL 529 NSCLC; 68.4 µM with OVCAR-3 ovarian. Further, the TGI came to 63.6 µM in the assay with MOLT-4 leukemia; 40.1 µM in the assay with M19-MEL melanoma; 71.9 µM with DMS 114 small cell lung; 58.3 µM in the assay with DMS 273 small cell lung; 38.2 µM in the assay on HOP-62 NSCLC; 58 µM with U251 CNS. For the same compound, the values for the TGI with HCC-2998 colon and with KM20L2 colon were 67.7 µM and 33.5 µM, respectively.
For the compound `COc1ccc(C2=C(Cl)c3cc(OC)c(OC)cc3C2OC)cc1OC` (configuration not stated), the TGI in the assay on DLD-1 colon is 41.8 µM; in the assay with NCI-H460 lung, above 100 µM; in the assay on KM12 colon, above 100 µM; in the assay on XF 498 CNS, above 100 µM; in the assay on SNB-78 CNS, above 100 µM; in the assay with LXFL 529 NSCLC, above 100 µM. The TGI in the assay on MOLT-4 leukemia, in the assay with LOX IMVI melanoma, in the assay on HOP-18 NSCLC, with M19-MEL melanoma, in the assay with DMS 114 small cell lung and in the assay with DMS 273 small cell lung was above 100 µM each time. The concentration for total growth inhibition (TGI) in the assay with HOP-62 NSCLC, in the assay with HCC-2998 colon, in the assay with KM20L2 colon and in the assay with HL-60(TB) leukemia was above 100 µM in each case.
For `CCN(CC)c1cccc2c1/C(=N/O)CCCC2`, the TGI in the assay with NCI-H460 lung, in the assay on KM12 colon, in the assay on XF 498 CNS, with SNB-78 CNS, with LXFL 529 NSCLC and with MOLT-4 leukemia was above 100 µM throughout. Further, the TGI with LOX IMVI melanoma, in the assay with HOP-18 NSCLC, in the assay with M19-MEL melanoma, with DMS 114 small cell lung, in the assay on DMS 273 small cell lung and in the assay on HOP-62 NSCLC was above 100 µM throughout. Further, the total growth inhibition concentration (TGI) in the assay with U251 CNS, in the assay with KM20L2 colon and in the assay with HL-60(TB) leukemia was above 100 µM in each case.
Turning to `CC(C)OP(=O)(OC(C)C)/C(Cl)=N/Nc1ccc([N+](=O)[O-])cc1`, the TGI in the assay with DLD-1 colon, with NCI-H460 lung, in the assay with KM12 colon, with XF 498 CNS, in the assay with SNB-78 CNS and in the assay on LXFL 529 NSCLC was above 100 µM each time. Moreover, the TGI with OVCAR-3 ovarian, in the assay on MOLT-4 leukemia, in the assay with LOX IMVI melanoma, with M19-MEL melanoma, with DMS 114 small cell lung and in the assay with DMS 273 small cell lung was above 100 µM in each case. The TGI with HOP-62 NSCLC, in the assay with U251 CNS, in the assay on HCC-2998 colon, in the assay on KM20L2 colon and with HL-60(TB) leukemia was above 100 µM in each case.
As to `CCN(CC)C(=O)Cc1c(C(=O)N(CC)CC)c(=O)nc2sccn12`, the total growth inhibition concentration (TGI) with DLD-1 colon, in the assay on NCI-H460 lung, in the assay on KM12 colon, with XF 498 CNS, in the assay with LXFL 529 NSCLC and with OVCAR-3 ovarian was above 100 µM in each case. In addition, the TGI in the assay on MOLT-4 leukemia, in the assay on LOX IMVI melanoma, in the assay with HOP-18 NSCLC, with M19-MEL melanoma, with DMS 114 small cell lung and in the assay with DMS 273 small cell lung was above 100 µM throughout. In addition, the TGI with HOP-62 NSCLC, with U251 CNS, with HCC-2998 colon, in the assay on KM20L2 colon and in the assay with HL-60(TB) leukemia was above 100 µM each time.
As to `O=C1NC(=O)C(F)(n2cc(F)c(=O)[nH]c2=O)C(O)N1` (configuration not stated), the TGI in the assay with NCI-H460 lung, with KM12 colon, in the assay on OVCAR-3 ovarian, with MOLT-4 leukemia, with LOX IMVI melanoma and with DU-145 prostate was above 10 µM each time. Further, the TGI in the assay on HOP-62 NSCLC, in the assay with U251 CNS, in the assay with HCC-2998 colon and with HL-60(TB) leukemia was above 10 µM each time.

These data come from PubChem BioAssay (NCI).
